# Reference: patent US20240317735A1, “HYDROISOQUINOLINE OR HYDRONAPHTHYRIDINE COMPOUNDS FOR THE TREATMENT OF AUTOIMMUNE DISEASE” (Hoffmann-La Roche Inc., priority 2020, published 2024)
# Target: T1, human TLR7 (Homo sapiens, UniProt Q9NYK1)
# T1 construct: host or cells: HEK293 (HEK-Blue hTLR7)
# T1 sequence (Q9NYK1 27-1049): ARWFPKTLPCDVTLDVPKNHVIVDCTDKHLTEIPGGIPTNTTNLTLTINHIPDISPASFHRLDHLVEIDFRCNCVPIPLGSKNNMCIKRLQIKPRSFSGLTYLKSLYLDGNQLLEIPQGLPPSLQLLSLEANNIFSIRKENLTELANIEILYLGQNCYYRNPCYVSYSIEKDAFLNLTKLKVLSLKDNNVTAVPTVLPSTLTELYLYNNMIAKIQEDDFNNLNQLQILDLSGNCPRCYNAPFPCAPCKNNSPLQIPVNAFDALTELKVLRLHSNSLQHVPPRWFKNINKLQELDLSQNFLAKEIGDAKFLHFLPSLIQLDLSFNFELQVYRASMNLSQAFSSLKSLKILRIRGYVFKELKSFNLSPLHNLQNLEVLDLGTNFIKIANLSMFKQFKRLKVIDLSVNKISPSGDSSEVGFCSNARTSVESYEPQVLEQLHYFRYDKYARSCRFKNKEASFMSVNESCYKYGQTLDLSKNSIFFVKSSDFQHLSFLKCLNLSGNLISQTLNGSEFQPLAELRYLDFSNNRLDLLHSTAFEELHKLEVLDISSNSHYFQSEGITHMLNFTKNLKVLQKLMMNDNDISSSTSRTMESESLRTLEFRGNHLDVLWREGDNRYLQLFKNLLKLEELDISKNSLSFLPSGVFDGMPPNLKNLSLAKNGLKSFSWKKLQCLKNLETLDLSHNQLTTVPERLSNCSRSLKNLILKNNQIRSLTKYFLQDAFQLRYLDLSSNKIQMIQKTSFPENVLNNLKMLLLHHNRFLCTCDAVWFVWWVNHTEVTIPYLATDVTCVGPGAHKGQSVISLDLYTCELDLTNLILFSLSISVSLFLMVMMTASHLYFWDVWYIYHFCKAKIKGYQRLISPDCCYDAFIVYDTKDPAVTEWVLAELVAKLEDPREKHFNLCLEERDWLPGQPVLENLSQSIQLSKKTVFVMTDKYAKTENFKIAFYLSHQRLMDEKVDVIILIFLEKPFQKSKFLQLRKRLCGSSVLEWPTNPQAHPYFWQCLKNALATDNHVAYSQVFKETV
# Assay: HEK293-Blue-hTLR-7 cells assay (SEAP reporter, R848 stimulation)
# Format: cell-based
# Conditions: HEK293-Blue-hTLR7 cells, R848, 20 hrs; read-out: HEK/hTLR7 IC50
# Procedure: The following tests were carried out in order to determine the activity of the compounds of formula (I) and (Ia) in HEK293-Blue-hTLR-7/8/9 cells assay.
# A stable HEK293-Blue-hTLR-7 cell line was purchased from InvivoGen (Cat. #: hkb-htlr7, San Diego, California, USA). These cells were originally designed for studying the stimulation of human TLR7 by monitoring the activation of NF-κB. A SEAP (secreted embryonic alkaline phosphatase) reporter gene was placed under the control of the IFN-β minimal promoter fused to five NF-κB and AP-1-binding sites. The SEAP was induced by activating NF-κB and AP-1 via stimulating HEK-Blue hTLR7 cells with TLR7 ligands. Therefore the reporter expression w % as declined by TLR7 antagonist under the stimulation of a ligand, such as R848 (Resiquimod), for incubation of 20 hrs. The cell culture supernatant SEAP reporter activity was determined using QUANTI-Blue™ kit (Cat. #: rep-qb1, Invivogen, San Diego, Ca, USA) at a wavelength of 640 nm, a detection medium that turns purple or blue in the presence of alkaline phosphatase.
# HEK293-Blue-hTLR7 cells were incubated at a density of 250,000˜450,000 cells/mL in a volume of 170 μL in a 96-well plate in Dulbecco's Modified Eagle's medium (DMEM) containing 4.5 g/L glucose, 50 U/mL penicillin, […], […] Normocin, 2 mM L-glutamine, 10% (v/v) heat-inactivated fetal bovine serum with addition of 20 μL test compound in a serial dilution in the presence of final DMSO at 1% and 10 μL of 20 uM R848 in above DMEM, perform incubation under 37° C. in a C02 incubator for 20 hrs. Then 20 μL of the supernatant from each well was incubated with 180 μL Quanti-blue substrate solution at 37° C. for 2 hrs and the absorbance was read at 620˜655 nm using a spectrophotometer. The signaling pathway that TLR7 activation leads to downstream NF-κB activation has been widely accepted, and therefore similar reporter assay was modified for evaluating TLR7 antagonist.
row,SMILES,IC50 [nM]
1,"CO[C@@H]1CN(C2CCN(c3ccc4c(c3)[C@@H](C)CN(c3ccnc5c3cnn5C)C4)CC2)C[C@H]1N [Example 11, (3R,4R)-4-methoxy-1-[1-[(4R)-4-methyl-2-(1-methylpyrazolo[3,4-b]pyridin-4-yl)-3,4-dihydro-1H-isoquinolin-6-yl]-4-piperidyl]pyrrolidin-3-amine]",2
2,"C[C@H]1CN(c2ccnc3c2cnn3C)Cc2ccc(N3C[C@]4(CCNC4)CC3=O)cc21 (single isomer, unassigned) [Example 54]",53
3,"Cn1ncc2c(N3CCc4cc(N5CCNCC5)ccc4C3)ccnc21 [Example 3, 2-(1-methylpyrazolo[3,4-b]pyridin-4-yl)-6-piperazin-1-yl-3,4-dihydro-1H-isoquinoline]",19
4,"C[C@H]1CN(c2ccnc3c2cnn3C)Cc2ccc(OC[C@@H]3CNCCN3)cc21 [Example 19, (4R)-4-methyl-2-(1-methylpyrazolo[3,4-b]pyridin-4-yl)-6-[[(2S)-piperazin-2-yl]methoxy]-3,4-dihydro-1H-isoquinoline]",8
5,"C[C@H]1CN(c2ccnc3c2cnn3C)Cc2ccc(N3C[C@@]4(CCNC4)CC3=O)cc21 (single isomer, unassigned) [Example 53]",18
6,"C[C@H]1CN(c2ccnc3c2cnn3C)Cc2ccc(N3C4CCC3CNC4)cc21 [Example 27, (4R)-6-(3,8-diazabicyclo[3.2.1]octan-8-yl)-4-methyl-2-(1-methylpyrazolo[3,4-b]pyridin-4-yl)-3,4-dihydro-1H-isoquinoline]",4
7,"C[C@H]1CN(c2ccnc3c2cnn3C)Cc2ccc(N3C[C@H]4CCNC[C@H]4C3=O)cc21 (single isomer, unassigned) [Example 56]",9
8,"CC1CN(c2ccnc3c2cnn3C)Cc2ccc(N3CCC4(CCNCC4)CC3)cc21 (stereo not drawn) [Example 4, 3-[4-methyl-2-(1-methylpyrazolo[3,4-b]pyridin-4-yl)-3,4-dihydro-1H-isoquinolin-6-yl]-3,9-diazaspiro[5.5]undecane]",4
9,"C[C@H]1CN(c2ccnc3c2cnn3C)Cc2ccc(N3CCNCC3)nc21 [Example 62, (8S)-8-methyl-6-(1-methylpyrazolo[3,4-b]pyridin-4-yl)-2-piperazin-1-yl-7,8-dihydro-5H-1,6-naphthyridine]",5
10,"C[C@H]1CN(c2ccnc3c2cnn3C)Cc2ccc(N3C[C@@H]4CNCCN4C3=O)cc21 [Example 25, (8aS)-2-[(4R)-4-methyl-2-(1-methylpyrazolo[3,4-b]pyridin-4-yl)-3,4-dihydro-1H-isoquinolin-6-yl]-1,5,6,7,8,8a-hexahydroimidazo[1,5-a]pyrazin-3-one]",15
11,"C[C@H]1CN(c2ccnc3c2cnn3C)Cc2ccc(N3CC4(CCNC4)CC3=O)cc21 (stereo partly drawn) [Example 52, 2-[(4R)-4-methyl-2-(1-methylpyrazolo[3,4-b]pyridin-4-yl)-3,4-dihydro-1H-isoquinolin-6-yl]-2,7-diazaspiro[4.4]nonan-3-one]",9
12,"Cc1cc(N2Cc3ccc(OC[C@H]4CNCCN4)cc3[C@@H](C)C2)c2cnn(C)c2n1 [Example 30, (4R)-2-(1,6-dimethylpyrazolo[3,4-b]pyridin-4-yl)-4-methyl-6-[[(2R)-piperazin-2-yl]methoxy]-3,4-dihydro-1H-isoquinoline]",37
13,"CO[C@@H]1CN(c2ccc3c(c2)[C@@H](C)CN(c2cc(C)nc4c2cnn4C)C3)C[C@H]1N [Example 23, (3R,4R)-4-methoxy-1-[(4R)-2-(1,6-dimethylpyrazolo[3,4-b]pyridin-4-yl)-4-methyl-3,4-dihydro-1H-isoquinolin-6-yl]pyrrolidin-3-amine]",5
14,"C[C@H]1CN(c2ccnc3c2cnn3C)Cc2ccc(N3CCC(N4CC(N)C4)CC3)cc21 [Example 28, 1-[1-[(4R)-4-methyl-2-(1-methylpyrazolo[3,4-b]pyridin-4-yl)-3,4-dihydro-1H-isoquinolin-6-yl]-4-piperidyl]azetidin-3-amine]",4
15,"C[C@H]1CN(c2ccnc3c2cnn3C)Cc2ccc(OC[C@@H]3CNCCN3C)cc21 [Example 44, (4R)-4-methyl-2-(1-methylpyrazolo[3,4-b]pyridin-4-yl)-6-[[(2S)-1-methylpiperazin-2-yl]methoxy]-3,4-dihydro-1H-isoquinoline]",15
16,"Cc1cc(N2Cc3ccc(N4CCC(O)(CN(C)C)CC4)cc3[C@@H](C)C2)c2cnn(C)c2n1 [Example 14, 4-[(dimethylamino)methyl]-1-[(4R)-2-(1,6-dimethylpyrazolo[3,4-b]pyridin-4-yl)-4-methyl-3,4-dihydro-1H-isoquinolin-6-yl]piperidin-4-ol]",8
17,"Cc1cc(N2Cc3cnc(N4CCNCC4)cc3[C@@H](C)C2)c2cnn(C)c2n1 [Example 74, (4R)-2-(1,6-dimethylpyrazolo[3,4-b]pyridin-4-yl)-4-methyl-6-piperazin-1-yl-3,4-dihydro-1H-2,7-naphthyridine]",6
18,"C[C@H]1CN(c2ccnc3c2cnn3C)Cc2ccc(N3CC4(CCNC4)OC3=O)cc21 (stereo partly drawn) [Example 35, 3-[(4R)-4-methyl-2-(1-methylpyrazolo[3,4-b]pyridin-4-yl)-3,4-dihydro-1H-isoquinolin-6-yl]-1-oxa-3,7-diazaspiro[4.4]nonan-2-one]",24
19,"C[C@H]1CN(c2ccnc3c2cnn3C)Cc2ccc(N3CCN[C@H](CO)C3)cc21 [Example 51, [(2S)-4-[(4R)-4-methyl-2-(1-methylpyrazolo[3,4-b]pyridin-4-yl)-3,4-dihydro-1H-isoquinolin-6-yl]piperazin-2-yl]methanol]",9
20,"C[C@H]1CN(c2ccnc3c2cnn3C)Cc2ccc(N3CCN[C@@H](CO)C3)cc21 [Example 50, [(2R)-4-[(4R)-4-methyl-2-(1-methylpyrazolo[3,4-b]pyridin-4-yl)-3,4-dihydro-1H-isoquinolin-6-yl]piperazin-2-yl]methanol]",10
21,"C[C@H]1CN(c2ccnc3c2cnn3C)Cc2ccc(N3CCN(C(=O)C4CNCCO4)CC3)cc21 (stereo partly drawn) [Example 12, morpholin-2-yl-[4-[(4R)-4-methyl-2-(1-methylpyrazolo[3,4-b]pyridin-4-yl)-3,4-dihydro-1H-isoquinolin-6-yl]piperazin-1-yl]methanone]",9
22,"CCn1ncc2c(N3Cc4ccc(N5CCNCC5)cc4[C@@H](C)C3)ccnc21 [Example 22, (4R)-2-(1-ethylpyrazolo[3,4-b]pyridin-4-yl)-4-methyl-6-piperazin-1-yl-3,4-dihydro-1H-isoquinoline]",10
23,"Cc1cc(N2Cc3ccc(N4CC5(CNCCO5)C4)nc3[C@@H](C)C2)c2cnn(C)c2n1 [Example 68, 2-[(8S)-6-(1,6-dimethylpyrazolo[3,4-b]pyridin-4-yl)-8-methyl-7,8-dihydro-5H-1,6-naphthyridin-2-yl]-5-oxa-2,8-diazaspiro[3.5]nonane]",17
24,"C[C@H]1CN(c2ccnc3c2cnn3C)Cc2ccc(N3C[C@@H]4CCNCC4C3=O)cc21 (relative stereo) [Example 55, cis-2-[(4R)-4-methyl-2-(1-methylpyrazolo[3,4-b]pyridin-4-yl)-3,4-dihydro-1H-isoquinolin-6-yl]-3a,4,5,6,7,7a-hexahydro-1H-pyrrolo[3,4-c]pyridin-3-one]",7
